According to patent US20100311674A1, “PHARMACEUTICAL COMPOSITIONS WITH A MECHANISM OF MULTI-TARGET RECEPTOR RETROACTION FOR TREATING DEPRESSION” (Yu-Fen Chi, priority 2007, published 2010):

What was measured:
ICR mice = assay: Resetpine-induced mouse body temperature decrease experiment (Experiment 2); type: in vivo
Excerpt: 2.1 Experimental animals: ICR mice, male, 22.0±2 g of body weight, secondary, are provided by the Experimental Animal Science Department of Capital Medical University, Beijing.
2.2 Experiment pharmaceuticals: The pharmaceutical of Embodiment 1 is provided by Beijing Wonner Biotech. Ltd. Co., Paroxetine (Paxil) is the product of Thong Mei Tianjin Smith Kline pharmaceuticals Co. Ltd., and Resetpine is the product of Guangdong BangMin Pharmaceutical Co., Ltd.
2.4 Dose designs: 1. High dose of Embodiment 1 (80 mg/kg/d); 2. middle dose of Embodiment 1 (40 mg/kg/d); and 3. low dose of Embodiment 1 (20 mg/kg/d).
2.5.1 Group division and administration of drug: The mice are grouped randomly, and 10 mice are in each group. 1. High dose of Embodiment 1 (80 mg/kg, P.O., administered for 7 days); 2. middle dose of Embodiment 1 (40 mg/kg, P.O., administered for 7 days); 3. low dose of Embodiment 1 (20 mg/kg, P.O., administered for 7 days); 4.
2.5.2 Experimental method: After 1 hour of the last administration of drug on the eighth day, the mouse's anal temperature is determined. […] After 4 hours of injecting Resetpine, the mouse's anal temperature is determined once again. […]
2.5.3 Statistic calculation: The experimental data are represented as X±SD, and the experimental result is calculated as ANOVA by SPSS 11.5 statistic software.

[1] = system: rat olfactory bulb lesion model; assay: Step through test (passive avoidance) of the rat olfactory bulb lesion model (Experiment 7); type: in vivo; settings: 2 mg/kg/d into the stomach, 24 days
Description: Olfactory bulb lesion model: Health Wistar male rats, secondary, 330±20 g of body weight, are purchased from Beijing Vital River Experimental Animal Technology Ltd. Co. (The quality certificate number: SCXK (JING) 2002-2003).
(§1) The above pharmaceuticals are prepared with 0.5% of sodium carboxymethylcellulose (CMC-Na) for feeding into the stomach. Benzylpenicillin sodium for injection is the product of North China Pharmaceutical Huasheng Co. Ltd. (Lot: S0511204), and norepinephrine (NE) and 5-hydrotryptamine (5-HT) standards are the products of Sigma Co. Other reagents are all marketed.
7.4.1 Group division and administration of drug: The rats are grouped randomly into 6 groups. 1. […]
7.5.2 Passive avoidance experiment (Step-through test): The step through box is configured by the light chamber and the dark chamber, and a channel is linked between the bright chamber and the dark chamber for mouse entrance and exit. […] The time that the rat enters into for the first time is recorded (electric-shocking latent period), and the time thereof is the learning record. […]
7.6 Statistic calculation: The experimental data are represented as X+SD, and the experimental result is calculated as ANOVA by SPSS 11.5 statistic software.

[2] = system: unpredictable long-term stimulus model; assay: Volume test of drinking sucrose, unpredictable long-term stimulus model (Experiment 8); type: in vivo, rat; settings: 2 mg/kg/d into the stomach, 24 days; 1% sucrose for 1 hour
Description: Unpredictable long-term stimulus model: Health Wistar male rats, secondary, 240˜270 g of body weight, are purchased from Beijing Vital River Experimental Animal Technology Ltd. Co. (The quality certificate number: SOCK (JING) 2002-2003).
as §1
8.4.1 Group division and administration of drug: The rats are grouped randomly into 6 groups. 1. False therapy group; 2. model group (control); 3. high dose of Embodiment 4 (60 mg/kg/d); 4. middle dose of Embodiment 4 (30 mg/kg/d); 5. low dose of Embodiment 4 (15 mg/kg/d); and 6. […]
8.5.5 Volume test of drinking sucrose: The sucrose-intake volume of the rats are compared. […] The drinking volumes are determined before the stimulus and after 3 weeks of the stimulus. […] The differences between the bottle weight before and after the rat drinking sucrose for 1 hour are measured and recorded, and the sucrose-drinking volume for each time is calculated. […]
8.6 Statistic calculation: The experimental data are represented as […], and the experimental result is calculated as ANOVA by SPSS 11.5 statistic software.

## Fc1ccc([C@@H]2CCNC[C@H]2COc2ccc3c(c2)OCO3)cc1 [Paroxetine]
ICR mice; 3 mg/kg P.O. 7 days, 4 h after Resetpine 2 mg/kg i.p.
  Decreased temperature: 2.38 ± 0.69 °C
ICR mice; high, middle and low doses of Embodiment 1, Paroxetine
  Effect on reduced body temperature induced by Resetpine (in words): decrease the reduced body temperature induced by Resetpine
[1]; learning record
  Latent period of the 1st day: 181.87 ± 90.54 s
[1]; memory record
  Latent period of the 2nd day: 265.00 ± 65.39 s
[2]
  Sucrose-intake volume: 26.29 ± 4.87 g
